Results from PMC12562379, “Facile Synthesis of N-vinylindoles via Knoevenagel Condensation: Molecular Features and Biological Activities” (International Journal of Molecular Sciences, 2025).
In brackets after ≈: the same amount, converted by molar mass. Where a name gives a salt, the structure may show the parent alone.

Columns and labels:
C. glabrata ATCC 2001 = assay: Microbroth dilution assay; type: cell-based, Candida glabrata; details: Nakaseomyces glabratus, ATCC2001
Description: (§1) The minimum inhibitory concentration (MIC) and minimum bactericidal/fungicidal concentration (MBC/MFC) of the tested compounds were determined by the microbroth dilution technique using 96-well plates based on the methodology described in the EUCAST (European Committee on Antimicrobial Susceptibility Testing) standards. Reference and clinical strains of Gram-positive (Staphylococcus aureus ATCC 6538, Staphylococuccus aureus MRSA 6347) and Gram-negative (Escherichia coli ATCC 8739) bacteria, and yeast (Candida albicans ATCC 10231, Candida glabrata ATCC 2001) were used for the assay. The studies were carried out in the Mueller–Hinton (MH) broth for bacteria and RPMI 1640 broth + MOPS (Sigma-Aldrich, Poland) buffer in the case of yeast. The dry test samples were dissolved in DMSO (dimethyl sulfoxide), resulting in a final concentration of 15 mg/mL, and then diluted in a geometric progression. Ampicillin (Sigma-Aldrich, Poland) acted as a control sample (512 to 4 µg/mL) for bacteria and ketoconazole (128 to 1 µg/mL) (Sigma-Aldrich, Poland) acted as a control sample for yeast. The cultures of microorganisms were prepared by transferring cells from the stock cultures to tubes with the appropriate broth and incubated with agitation in an aerobic atmosphere for 18 ± 2 h at 35 ± 1 °C; next, they were diluted to achieve an optical density corresponding to 5 × 105 (bacteria) or 2 × 105 (yeast) colony-forming units per mL (cfu/mL). An appropriate media (96 µL), along with the tested compounds with a final concentration range of 300–3.1 µg/mL (4 µL) and next microbial suspension (100 µL) were added to each well. Plates with samples were incubated in adequate conditions described above and microbial growth was assessed. […] (>90%; ketoconazole) but 50% (for other compounds) inhibits visible growth of yeasts. Next, as a control of microbial viability, 100 µL of the samples from each well without growth was inoculated on the MH or RPMI agar plates and incubated for 18 ± 2 h at 35 ± 1 °C and finally, the CFU was counted. The MBC/MFC was determined as the minimum concentration of compounds required to kill 99.9% the organisms.

AGS = assay: MTT assay, cytotoxic activity; type: cell-based, human; details: Homo sapiens, 24 h, n = 12
Description: (§2) The human ovarian SKOV-3, gastric adenocarcinoma AGS, cervical HeLa cell lines and non-cancerous keratinocytes HaCaT were obtained from the American Type Culture Collection (ATCC, Manassas, VA, USA). The cell lines were cultured in McCoy’s Medium, Dulbecco’s Modified Eagle’s Medium/F12, and DMEM, respectively (Merck Millipore, Burlington, MA, USA). Penicillin (100 units/mL), streptomycin ([…]), and 10% (v/v) fetal bovine serum (FBS) were added to all the media. The cells were incubated at 37 °C and 5% CO2.
(§3) To estimate the cytotoxic activity of the obtained compounds 2a-i, MTT assay was used. The cells (5 × 10^3 cells/well) were treated with the compounds in a range of concentrations 1–150 µg/mL. […] After 24 h, MTT solution (0.5 mg/mL) was added to the cells. Formazan crystals were dissolved in DMSO and the absorbance was measured with a microtiter plate reader (Epoch, BioTek Instruments, Winooski, VT, USA).

HeLa = assay: MTT assay, cytotoxic activity; type: cell-based, human; details: Homo sapiens, 24 h, n = 12
Description: as §2, §3

SKOV-3 = assay: MTT assay, cytotoxic activity; type: cell-based, human; details: Homo sapiens, SK-OV-3; SKOV-3, MTT, 24 h, n = 12
Description: as §2, §3

S. aureus ATCC 6535 = assay: Microbroth dilution assay; type: cell-based; details: Staphylococcus aureus, ATCC6535
C. albicans ATCC 10231 = assay: Microbroth dilution assay; type: cell-based, Candida albicans; details: Candida albicans, ATCC10231, C. albicans ATCC 10231; for MFC: read-out: MFC; for MIC: read-out: MIC
Description: as §1

S. aureus MRSA 12673 = assay: Microbroth dilution assay; type: cell-based; details: Staphylococcus aureus, S. aureus MRSA 12673; for MIC: read-out: MIC
HaCaT = assay: MTT assay, cytotoxic activity on non-cancerous keratinocytes; type: cell-based; details: Homo sapiens, 24 h, n = 12
Description: as §2, §3

E. coli ATCC 8739 = assay: Microbroth dilution assay; type: cell-based; details: Escherichia coli, ATCC8739, E. coli ATCC 8739; for MIC: read-out: MIC
Description: as §1

[1] = tested on: HeLa, SKOV-3, AGS (and HaCaT) cell lines; assay: MTT assay, ranges stated over several cell lines; type: cell-based, human; details: Homo sapiens
Description: as §2, §3

[2] = target: T1, AGE2-BSA/sRAGE interaction (Homo sapiens, UniProt Q15109); assay: ELISA AGE2-BSA/sRAGE inhibitory screening; type: binding
T1 construct: purchased Creative BioMart
T1 sequence (Q15109 23-342 limits assumed): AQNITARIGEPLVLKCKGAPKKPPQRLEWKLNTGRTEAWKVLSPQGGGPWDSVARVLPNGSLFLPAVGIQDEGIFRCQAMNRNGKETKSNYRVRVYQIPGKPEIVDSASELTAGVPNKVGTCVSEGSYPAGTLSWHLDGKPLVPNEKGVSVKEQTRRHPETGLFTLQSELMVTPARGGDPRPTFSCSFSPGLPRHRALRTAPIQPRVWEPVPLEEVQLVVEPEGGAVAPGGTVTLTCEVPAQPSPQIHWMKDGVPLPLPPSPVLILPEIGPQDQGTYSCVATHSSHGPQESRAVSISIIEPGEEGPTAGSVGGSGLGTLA
Description: The in vitro inhibitor screening of AGE2 (glyceraldehyde-modified AGE)-sRAGE interaction (soluble RAGE) was performed using a 96-well AGE-BSA-coated plate (Creative BioMart® ELISA kit, Shirley, NY, USA), according to the manufacturer’s instructions. 100 UA/mL soluble RAGE (sRAGE) was incubated with 100 μM of the tested compounds or 0.05% DMSO as a negative control on an AGE2-BSA-coated plate at room temperature for 60 min, shaking at 300 rpm on an orbital microplate shaker. After incubation, the wells were washed 4 times with wash buffer and horseradish peroxidase (HRP)-labeled anti-RAGE antibody was added and the plate was further incubated at room temperature for 60 min, shaking at 300 rpm on an orbital microplate shaker. After incubation, the wells were washed 4 times with wash buffer and the Substrate Reagent was added to each well. After an incubation at room temperature for 5 min, the HRP-labeled antibody sRAGE-AGE complex was then detected by measuring the absorbance at 450 nm using the microplate reader Varioskan (Thermo Fischer Scientific). These experiments were repeated two times.

In the case of `COc1ccc(/C=C(/C2=NCCN2)n2ccc3ccccc32)cc1` [Compound 2c, (Z)-1-[1-(4,5-dihydro-1H-imidazol-2-yl)-2-(4-methoxyphenyl)vinyl]-1H-indole], the MFC (C. glabrata ATCC 2001) is reported as > 220 mg/L, the MIC (C. glabrata ATCC 2001) is reported as > 220 mg/L and the IC50 (AGS) is reported as 10.29 ± 0.08 mg/L (≈ 32.4 µM). For the same compound, the IC50 (HeLa) was 7.86 ± 0.59 mg/L (≈ 24.8 µM), the IC50 (SKOV-3) was 8.8 ± 0.46 mg/L (≈ 27.7 µM) and the MBC (S. aureus ATCC 6535) was 110 mg/L (≈ 347 µM). The MIC (S. aureus ATCC 6535) was 110 mg/L (≈ 347 µM), the MFC (C. albicans ATCC 10231) was > 220 mg/L and the MIC (C. albicans ATCC 10231) was > 220 mg/L. For the same compound, the MBC (S. aureus MRSA 12673) was > 220 mg/L, the MIC (S. aureus MRSA 12673) was > 220 mg/L and the IC50 (HaCaT) was 9.11 ± 1.58 mg/L (≈ 28.7 µM). The MBC (E. coli ATCC 8739) was > 220 mg/L and the MIC (E. coli ATCC 8739) was 220 mg/L (≈ 693 µM).

For `O=[N+]([O-])c1ccc(/C=C(/C2=NCCN2)n2ccc3ccccc32)cc1` [Compound 2g, (Z)-1-[1-(4,5-dihydro-1H-imidazol-2-yl)-2-(4-nitrophenyl)vinyl]-1H-indole], the MFC (C. glabrata ATCC 2001) was > 220 mg/L, the MIC (C. glabrata ATCC 2001) was > 220 mg/L and the IC50 (AGS) was 10.14 ± 0.08 mg/L (≈ 30.5 µM). For the same compound, the IC50 (HeLa) was 5.6 ± 0.57 mg/L (≈ 16.8 µM), the IC50 (SKOV-3) was 7.06 ± 0.62 mg/L (≈ 21.2 µM) and the IC50 ([1]; range over HeLa and SKOV-3 cell lines) was 5.6 to 7.06 mg/L (≈ 16.8 to 21.2 µM). For the same compound, the MBC (S. aureus ATCC 6535) was 110 mg/L (≈ 331 µM), the MIC (S. aureus ATCC 6535) was 55 mg/L (≈ 165 µM) and the MFC (C. albicans ATCC 10231) was > 220 mg/L. The MIC (C. albicans ATCC 10231) was > 220 mg/L, the MBC (S. aureus MRSA 12673) was > 220 mg/L and the MIC (S. aureus MRSA 12673) was 110 mg/L (≈ 331 µM). For the same compound, the IC50 (HaCaT) was 9.15 ± 0.74 mg/L (≈ 27.5 µM), the MBC (E. coli ATCC 8739) was > 220 mg/L and the MIC (E. coli ATCC 8739) was 220 mg/L (≈ 662 µM).

With `Fc1ccc(/C=C(/C2=NCCN2)n2ccc3ccccc32)cc1` [Compound 2d, (Z)-1-[1-(4,5-dihydro-1H-imidazol-2-yl)-2-(4-fluorophenyl)vinyl]-1H-indole] the MFC (C. glabrata ATCC 2001) was > 240 mg/L, the MIC (C. glabrata ATCC 2001) was > 240 mg/L and the IC50 (AGS) was 15.5 ± 0.72 mg/L (≈ 50.7 µM). The IC50 (HeLa) was 8.65 ± 0.68 mg/L (≈ 28.3 µM), the IC50 (SKOV-3) was 10.2 ± 0.45 mg/L (≈ 33.6 µM) and the IC50 ([1]; range over the cancer cell lines HeLa, SKOV-3 and AGS) was 8.65 to 15.5 mg/L (≈ 28.3 to 50.7 µM). The MBC (S. aureus ATCC 6535) was 240 mg/L (≈ 786 µM), the MIC (S. aureus ATCC 6535) was 120 mg/L (≈ 393 µM) and the MFC (C. albicans ATCC 10231) was > 240 mg/L. For the same compound, the MIC (C. albicans ATCC 10231) was > 240 mg/L, the MBC (S. aureus MRSA 12673) was > 240 mg/L and the MIC (S. aureus MRSA 12673) was 120 mg/L (≈ 393 µM). For the same compound, the IC50 (HaCaT) was 7.37 ± 0.28 mg/L (≈ 24.1 µM), the inhibition at 100 µM [2] was 12% and the MBC (E. coli ATCC 8739) was > 240 mg/L. For the same compound, the MIC (E. coli ATCC 8739) was 240 mg/L (≈ 786 µM).

`CC(=O)N1CCN(c2ccc(OCC3COC(Cn4ccnc4)(c4ccc(Cl)cc4Cl)O3)cc2)CC1` (centres unmarked) [Ketoconazole, reference compound] was tested, and the MFC (C. glabrata ATCC 2001) was 128 mg/L (≈ 241 µM), the MIC (C. glabrata ATCC 2001) was 64 mg/L (≈ 120 µM) and the MFC (C. albicans ATCC 10231) was > 128 mg/L. For the same compound, the MIC (C. albicans ATCC 10231) was > 128 mg/L.

`CC[C@]1(O)C[C@@H]2CN(CCc3c([nH]c4ccccc34)[C@@](C(=O)OC)(c3cc4c(cc3OC)N(C)[C@H]3[C@@](O)(C(=O)OC)[C@H](OC(C)=O)[C@]5(CC)C=CCN6CC[C@]43[C@@H]65)C2)C1` [Vinblastine sulfate, reference compound] gave an IC50 (HeLa) of 0.005 ± 0.0004 mg/L and an IC50 (SKOV-3) of 0.008 ± 0.0003 mg/L.

`C(=C(\C1=NCCN1)n1ccc2ccccc21)/c1ccccc1` [Compound 2a, (Z)-1-[1-(4,5-dihydro-1H-imidazol-2-yl)-2-(phenyl)vinyl]-1H-indole] was tested, and the MFC (C. glabrata ATCC 2001) was > 220 mg/L, the MIC (C. glabrata ATCC 2001) was > 220 mg/L and the IC50 (AGS) was 17.2 ± 0.68 mg/L (≈ 60 µM). It also gave an IC50 (HeLa) of 8.96 ± 0.33 mg/L (≈ 31.2 µM), an IC50 (SKOV-3) of 9.81 ± 0.45 mg/L (≈ 34.1 µM) and an MBC (S. aureus ATCC 6535) of 220 mg/L (≈ 766 µM). The MIC (S. aureus ATCC 6535) was 110 mg/L (≈ 383 µM), the MFC (C. albicans ATCC 10231) was > 220 mg/L and the MIC (C. albicans ATCC 10231) was > 220 mg/L. For the same compound, the MBC (S. aureus MRSA 12673) was > 220 mg/L, the MIC (S. aureus MRSA 12673) was 220 mg/L (≈ 766 µM) and the IC50 (HaCaT) was 11.7 ± 1.31 mg/L (≈ 40.7 µM). It also gave an MBC (E. coli ATCC 8739) of 220 mg/L (≈ 766 µM) and an MIC (E. coli ATCC 8739) of 220 mg/L (≈ 766 µM).
